Results from the supplement of paper PMC11208160.

Test: recombinant UMI read abundance after kanamycin selection (control-corrected) (log10(CPM+1)); higher = more efficient recombination; extreme values may be limits of the assay; sequences stand for … in AGTGCAGAGAAAATCGGCCAGTTTTCTCTGCCTGCAGTCCGCATGCCGTGGGACCCCTTGGGTTCTAACCTGTTGCCTAGATTTATGCAGCGGACTGCCTTTCTCCCAAAGTGATAAACCGG…AGGTTGGTTTCACT; site = the 11-nt donor
How it was run: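 After plating on IPTG (0.07 mM) plus kanamycin, or unselected, in two replicates, recombinant UMIs were PCR-amplified across the donor–target junction and sequenced. The cells were Escherichia coli co-electroporated with a UMI-tagged donor and donor-binding-loop pair library and a target plasmid with a fixed target and T7-inducible IS621 bridge recombinase. Values are log10(CPM+1), with CPM averaged over replicates and scaled by control-derived factors.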

Row | Sequence | recombinant UMI read abundance (log10)
1 | TAATGGCCATGGACCGGTTTTCCCGGTAATCCGTATTTGCA (site GAATGGCCTTG) | 0.00525
2 | TAATGGCCATGGACCGGTTTTCCCGGTAATCCGTATTTGCA (site TAATGGCCTTG) | 0.0063
3 | TAATTCGCATGGACCGGTTTTCCCGGTAATCCGTATTTGTG (site TAATTCGCTCA) | 0.0276
4 | TACACCTCATGGACCGGTTTTCCCGGTAATCCGTATTTGAA (site TACACCTCTTT) | 0.804
5 | TACACCTCATGGACCGGTTTTCCCGGTAATCCGTATTTGCA (site TACACCTCTTG) | 2.35
6 | TACAGCCCATGGACCGGTTTTCCCGGTAATCCGTATTTGGA (site TACAGCCCTTC) | 0.0282
7 | TACATCCCATGGACCGGTTTTCCCGGTAATCCGTATTTGAG (site TACATCCCTCT) | 0.0123
8 | TACATGACATGGACCGGTTTTCCCGGTAATCCGTATTTGCG (site TACATGACTCG) | 1.12
9 | TACATGACATGGACCGGTTTTCCCGGTAATCCGTATTTGTG (site TACATGACTCA) | 0.61
10 | TACATGTCATGGACCGGTTTTCCCGGTAATCCGTATTTGTC (site TACATGTCTGA) | 1.56
11 | TACCCACCATGGACCGGTTTTCCCGGTAATCCGTATTTGAC (site TACCCACCTGT) | 0
12 | TACCGTTCATGGACCGGTTTTCCCGGTAATCCGTATTTGTT (site TACCGTTCTAA) | 0.218
13 | TACCTCCCATGGACCGGTTTTCCCGGTAATCCGTATTTGGC (site TACCTCCCTGC) | 0
14 | TACCTGCCATGGACCGGTTTTCCCGGTAATCCGTATTTGTA (site TACCTGCCTTA) | 0.0209
15 | TACCTTACATGGACCGGTTTTCCCGGTAATCCGTATTTGGA (site TACCTTACTTC) | 0.0267
16 | TACGCACCATGGACCGGTTTTCCCGGTAATCCGTATTTGAG (site TACGCACCTCT) | 0.0119
17 | TACGGATCATGGACCGGTTTTCCCGGTAATCCGTATTTGTA (site TACGGATCTTA) | 0.989
18 | TACGGTACATGGACCGGTTTTCCCGGTAATCCGTATTTGTG (site TACGGTACTCA) | 0.582
19 | TACGGTGCATGGACCGGTTTTCCCGGTAATCCGTATTTGAC (site TACGGTGCTGT) | 1.15
20 | TACGTGACATGGACCGGTTTTCCCGGTAATCCGTATTTGCT (site TACATGACTAG) | 1.65
21 | TACGTGACATGGACCGGTTTTCCCGGTAATCCGTATTTGCT (site TACCTGACTAG) | 0.0236
22 | TACGTGACATGGACCGGTTTTCCCGGTAATCCGTATTTGCT (site TACGTGACTAG) | 2.43
23 | TACGTGACATGGACCGGTTTTCCCGGTAATCCGTATTTGCT (site TACTTGACTAG) | 0.238
24 | TACTAGGCATGGACCGGTTTTCCCGGTAATCCGTATTTGGT (site TACTAGGCTAC) | 0.225
25 | TACTAGGCATGGACCGGTTTTCCCGGTAATCCGTATTTGGT (site TCCTAGGCTAC) | 0.0602

Row | Sequence | recombinant UMI read abundance (log10)
26 | TACTAGGCATGGACCGGTTTTCCCGGTAATCCGTATTTGGT (site TGCTAGGCTAC) | 0.0175
27 | TACTAGGCATGGACCGGTTTTCCCGGTAATCCGTATTTGGT (site TTCTAGGCTAC) | 0.00516
28 | TACTATGCATGGACCGGTTTTCCCGGTAATCCGTATTTGCG (site TACTATGCTCG) | 0.64
29 | TACTGGACATGGACCGGTTTTCCCGGTAATCCGTATTTGCT (site TACTAGACTAG) | 0.948
30 | TACTGGACATGGACCGGTTTTCCCGGTAATCCGTATTTGCT (site TACTCGACTAG) | 0.188
31 | TACTGGACATGGACCGGTTTTCCCGGTAATCCGTATTTGCT (site TACTGGACTAG) | 2.01
32 | TACTGGACATGGACCGGTTTTCCCGGTAATCCGTATTTGCT (site TACTTGACTAG) | 0.00209
33 | TACTTGACATGGACCGGTTTTCCCGGTAATCCGTATTTGCC (site TACTTGACTAG) | 0.0078
34 | TACTTGACATGGACCGGTTTTCCCGGTAATCCGTATTTGCC (site TACTTGACTCG) | 0.0284
35 | TACTTGACATGGACCGGTTTTCCCGGTAATCCGTATTTGCC (site TACTTGACTGG) | 0
36 | TACTTGACATGGACCGGTTTTCCCGGTAATCCGTATTTGCC (site TACTTGACTTG) | 0.00491
37 | TACTTGACATGGACCGGTTTTCCCGGTAATCCGTATTTGTG (site TACTTGACTCA) | 0.00608
38 | TACTTTCCATGGACCGGTTTTCCCGGTAATCCGTATTTGCG (site TACTTTCCTCG) | 1.29
39 | TACTTTCCATGGACCGGTTTTCCCGGTAATCCGTATTTGCT (site TACTTTCCTAG) | 0.537
40 | TACTTTGCATGGACCGGTTTTCCCGGTAATCCGTATTTGGA (site TACTTTGCTTC) | 0.0143
41 | TAGAAATCATGGACCGGTTTTCCCGGTAATCCGTATTTGCG (site TAGAAATCTCG) | 2.05
42 | TAGAAATCATGGACCGGTTTTCCCGGTAATCCGTATTTGCG (site TAGCAATCTCG) | 1.42
43 | TAGAAATCATGGACCGGTTTTCCCGGTAATCCGTATTTGCG (site TAGGAATCTCG) | 1.44
44 | TAGAAATCATGGACCGGTTTTCCCGGTAATCCGTATTTGCG (site TAGTAATCTCG) | 2.33
45 | TAGAACACATGGACCGGTTTTCCCGGTAATCCGTATTTGTC (site TAGAACACTGA) | 2.34
46 | TAGAAGACATGGACCGGTTTTCCCGGTAATCCGTATTTGCC (site TAGAAGACTGG) | 2.25
47 | TAGAATACATGGACCGGTTTTCCCGGTAATCCGTATTTGTA (site TAGAATACTTA) | 1.55
48 | TAGAATACATGGACCGGTTTTCCCGGTAATCCGTATTTGTA (site TAGAATACTTC) | 0.00357
49 | TAGAATACATGGACCGGTTTTCCCGGTAATCCGTATTTGTA (site TAGAATACTTG) | 0.697
50 | TAGAATACATGGACCGGTTTTCCCGGTAATCCGTATTTGTA (site TAGAATACTTT) | 0.208

Row | Sequence | recombinant UMI read abundance (log10)
51 | TAGAATACATGGACCGGTTTTCCCGGTAATCCGTATTTGTG (site TAGAATACTCA) | 2.01
52 | TAGACGACATGGACCGGTTTTCCCGGTAATCCGTATTTGAC (site TAGACGACTGT) | 2.6
53 | TAGACGGCATGGACCGGTTTTCCCGGTAATCCGTATTTGGC (site TAGACGGCTGC) | 2.75
54 | TAGACTCCATGGACCGGTTTTCCCGGTAATCCGTATTTGCA (site TAGACTCCTTG) | 1.54
55 | TAGCAATCATGGACCGGTTTTCCCGGTAATCCGTATTTGCG (site TAGAAATCTCG) | 0
56 | TAGCAATCATGGACCGGTTTTCCCGGTAATCCGTATTTGCG (site TAGCAATCTCG) | 1.45
57 | TAGCAATCATGGACCGGTTTTCCCGGTAATCCGTATTTGCG (site TAGGAATCTCG) | 0
58 | TAGCAATCATGGACCGGTTTTCCCGGTAATCCGTATTTGCG (site TAGTAATCTCG) | 0.646
59 | TAGCAGTCATGGACCGGTTTTCCCGGTAATCCGTATTTGTC (site TAGCAGTCTGA) | 2.39
60 | TAGCCAGCATGGACCGGTTTTCCCGGTAATCCGTATTTGAA (site TAGCAAGCTTT) | 0.0207
61 | TAGCCAGCATGGACCGGTTTTCCCGGTAATCCGTATTTGAA (site TAGCCAGCTTT) | 0.924
62 | TAGCCAGCATGGACCGGTTTTCCCGGTAATCCGTATTTGAA (site TAGCGAGCTTT) | 0.0055
63 | TAGCCAGCATGGACCGGTTTTCCCGGTAATCCGTATTTGAA (site TAGCTAGCTTT) | 0.00915
64 | TAGCCTCCATGGACCGGTTTTCCCGGTAATCCGTATTTGGT (site TAGCCTACTAC) | 0.0161
65 | TAGCCTCCATGGACCGGTTTTCCCGGTAATCCGTATTTGGT (site TAGCCTCCTAC) | 0.00993
66 | TAGCCTCCATGGACCGGTTTTCCCGGTAATCCGTATTTGGT (site TAGCCTGCTAC) | 0.0298
67 | TAGCCTCCATGGACCGGTTTTCCCGGTAATCCGTATTTGGT (site TAGCCTTCTAC) | 0
68 | TAGCCTGCATGGACCGGTTTTCCCGGTAATCCGTATTTGGT (site TAGCCTACTAC) | 0.00931
69 | TAGCCTGCATGGACCGGTTTTCCCGGTAATCCGTATTTGGT (site TAGCCTCCTAC) | 0.00394
70 | TAGCCTGCATGGACCGGTTTTCCCGGTAATCCGTATTTGGT (site TAGCCTGCTAC) | 0.0393
71 | TAGCCTGCATGGACCGGTTTTCCCGGTAATCCGTATTTGGT (site TAGCCTTCTAC) | 0.00419
72 | TAGCCTTCATGGACCGGTTTTCCCGGTAATCCGTATTTGAT (site TAGCCTTCTAA) | 0.00922
73 | TAGCCTTCATGGACCGGTTTTCCCGGTAATCCGTATTTGAT (site TAGCCTTCTAC) | 0.0113
74 | TAGCCTTCATGGACCGGTTTTCCCGGTAATCCGTATTTGAT (site TAGCCTTCTAG) | 0
75 | TAGCCTTCATGGACCGGTTTTCCCGGTAATCCGTATTTGAT (site TAGCCTTCTAT) | 0
